Measured values published in ChEMBL document CHEMBL3085759, “Structure-activity relationship (SAR) and preliminary mode of action studies of 3-substituted benzylthioquinolinium iodide as anti-opportunistic infection agents” (Eur J Med Chem, 2013).
In brackets after ≈: the same amount, converted by molar mass.

Columns and labels:
Nakaseomyces glabratus = test: Antimicrobial activity against Candida glabrata by Alamar blue method; type: functional, organism-based
Pichia kudriavzevii = test: Antimicrobial activity against Candida krusei ATCC 6258 by Alamar blue method; type: functional, organism-based
Vero = test: Cytotoxicity against african green monkey Vero cells at 10 ug/ml after 48 hrs by Neutral Red dye assay; type: cell-based; conditions: chlorocebus sabaeus
Aspergillus fumigatus = test: Antimicrobial activity against Aspergillus fumigatus ATCC 204305 by Alamar blue method; type: functional, organism-based
Candida albicans = test: Antimicrobial activity against Candida albicans ATCC 90028 by Alamar blue method; type: functional, organism-based
Staphylococcus aureus [1] = test: Antimicrobial activity against Staphylococcus aureus ATCC 29213 by Alamar blue method; type: functional, organism-based; conditions: Staphylococcus aureus, ATCC 29213; for IC50: read-out: IC50
Cryptococcus neoformans = test: Antimicrobial activity against Cryptococcus neoformans ATCC 90113 by Alamar blue method; type: functional, organism-based
[2] = system: Mycobacterium intracellulare; test: Antimicrobial activity against Mycobacterium intracellulare ATCC 23068 by Alamar blue method; type: functional, organism-based
Staphylococcus aureus [3] = test: Antimicrobial activity against methicillin-resistant Staphylococcus aureus ATCC 33591 by Alamar blue method; type: functional, organism-based

Compound	IC50 (Nakaseomyces glabratus) [µg/mL]	MFC (Nakaseomyces glabratus) [µg/mL]	MIC (Nakaseomyces glabratus) [µg/mL]	IC50 (Pichia kudriavzevii) [µg/mL]	MFC (Pichia kudriavzevii) [µg/mL]	MIC (Pichia kudriavzevii) [µg/mL]	Activity (Vero)	IC50 (Aspergillus fumigatus) [µg/mL]	MFC (Aspergillus fumigatus) [µg/mL]	MIC (Aspergillus fumigatus) [µg/mL]	IC50 (Candida albicans) [µg/mL]	MFC (Candida albicans) [µg/mL]	MIC (Candida albicans) [µg/mL]	MBC (Staphylococcus aureus [1]) [µg/mL]	MIC (Staphylococcus aureus [1]) [µg/mL]	IC50 (Staphylococcus aureus [1]) [µg/mL]	MFC (Cryptococcus neoformans) [µg/mL]	IC50 [2] [µg/mL]	MIC [2] [µg/mL]	MIC (Staphylococcus aureus [3]) [µg/mL]	also measured
COc1ccc(CSc2cc3ccccc3[n+](CCCCCC3CCCCC3)c2)cc1.[I-]	3	10	10	0.37	1.3	0.63	Non-toxic	5.4	10	10	1.2	5	5	2.5	0.31	0.18	0.63	1.7	2.5	0.63	IC50 (Cryptococcus neoformans): 0.18 µg/mL; MIC (Cryptococcus neoformans): 0.31 µg/mL; MBC [2]: 2.5 µg/mL; IC50 (Staphylococcus aureus [3]): 0.36 µg/mL; MBC (Staphylococcus aureus [3]): 2.5 µg/mL
Clc1ccccc1CSc1cc2ccccc2[n+](CCCCCC2CCCCC2)c1.[I-]	6	10	10	0.34	2.5	2.5	Non-toxic	17	20	20	5.6	20	10	5	1.3	0.77	5	13	20	1.3	IC50 (Cryptococcus neoformans): 1.5 µg/mL; MIC (Cryptococcus neoformans): 2.5 µg/mL; MBC [2]: 20 µg/mL; IC50 (Staphylococcus aureus [3]): 0.74 µg/mL; MBC (Staphylococcus aureus [3]): 5 µg/mL
Oc1ccc(CSc2cc3ccccc3[n+](CCCCCC3CCCCC3)c2)cc1.[I-]	7.9	20	20	0.56	1.3	1.3	Non-toxic	16	20	20	11	20	20	2.5	2.5	0.26	10	2.2	2.5	0.63	MIC (Cryptococcus neoformans): 10 µg/mL; MBC [2]: 5 µg/mL; IC50 (Staphylococcus aureus [3]): 0.34 µg/mL; MBC (Staphylococcus aureus [3]): 5 µg/mL
O=C(O)c1cn(C2CC2)c2cc(N3CCNCC3)c(F)cc2c1=O [CIPROFLOXACIN]															0.5 (≈ 1.51 µM)			0.005 (≈ 0.0151 µM)	0.45 (≈ 1.36 µM)	0.5 (≈ 1.51 µM)	
COc1cccc(CSc2cc3ccccc3[n+](CCCCCC3CCCCC3)c2)c1.[I-]	9.7	20	20	0.88	2.5	2.5	Non-toxic	10.9	> 20	20	4.8	10	10	1.3	0.63	0.28	2.5	3.7	5	0.63	IC50 (Cryptococcus neoformans): 0.35 µg/mL; MIC (Cryptococcus neoformans): 0.63 µg/mL; MBC [2]: 5 µg/mL; IC50 (Staphylococcus aureus [3]): 0.33 µg/mL; MBC (Staphylococcus aureus [3]): 1.3 µg/mL
Brc1cccc(CSc2cc3ccccc3[n+](CCCCCC3CCCCC3)c2)c1.[I-]	1.4	2.5	2.5	0.4	0.63	0.63	Non-toxic	4.8	10	10	2.6	5	5	0.63	0.63	0.42	1.3	3.2	5	0.31	IC50 (Cryptococcus neoformans): 0.56 µg/mL; MIC (Cryptococcus neoformans): 0.63 µg/mL; MBC [2]: 5 µg/mL; IC50 (Staphylococcus aureus [3]): 0.21 µg/mL; MBC (Staphylococcus aureus [3]): 0.63 µg/mL
Fc1ccccc1CSc1cc2ccccc2[n+](CCCCCC2CCCCC2)c1.[I-]	6.3	20	20	1.4	2.5	2.5	Non-toxic	6.5	20	20	2.7	5	5	2.5	1.3	0.73	1.3	16	20	1.3	IC50 (Cryptococcus neoformans): 0.63 µg/mL; MIC (Cryptococcus neoformans): 1.3 µg/mL; MBC [2]: 20 µg/mL; IC50 (Staphylococcus aureus [3]): 0.74 µg/mL; MBC (Staphylococcus aureus [3]): 2.5 µg/mL
